Active and inactive are the calls of the source. The rule behind the calls is not given here.
What was measured:
[1] = system: SMA-540; test: Antitumor activity against mouse SMA-540 cells xenografted in VM/Dk mouse assessed as tumor cell proliferation at 100 mg/kg,po daily by Ki67 staining based immunohistochemistry analysis; format: functional, organism-based
[2] = system: SMA-540; test: In vivo inhibition of TIE-2 in VM/Dk mouse xenografted with mouse SMA-540 cells assessed as decrease in TIE-2 expression in brain blood vessels at 100 mg/kg,po daily by immunohistochemistry analysis; format: functional, organism-based
[3] = system: SMA-497; test: Induction of apoptosis in mouse SMA-497 cells assessed as early apoptotic cells at 0.1 uM incubated for 72 hrs by Annexin V-FITC/PI staining based flow cytometric analysis (reference value: 0.015%); format: functional
[4] = system: SMA-540; test: Anti-clonogenicic activity in mouse SMA-540 cells assessed as reduction in colony formation at 0.001 to 10 uM and measured after 10 days by MTT based clonogenic survival assay; format: functional, cell-based; conditions: dose 0.001-10 µM, time 10.0 day
[5] = system: SMA-497; test: Antitumor activity against mouse SMA-497 cells xenografted in VM/Dk mouse assessed as decrease in tumor volume at 100 mg/kg,po daily with 12 Gy irradition after 2days of treatment initiation by H and E staining based microscopy; format: functional, organism-based
[6] = system: SMA-560; test: In vivo inhibition of TIE-2 in VM/Dk mouse xenografted with mouse SMA-560 cells assessed as decrease in TIE-2 expression in brain blood vessels at 100 mg/kg,po daily with 12 Gy irradition after 2days of treatment initiation by immunohistochemistry analysis; format: functional, organism-based
[7] = system: SMA-497; test: Induction of cell cycle arrest in mouse SMA-497 cells assessed as accumulation at S phase at 0.1 uM incubated for 72 hrs by propidium iodide/RNase staining based flow cytomtery (Rvb= 8%); format: functional
[8] = system: GL261; test: Antitumor activity against mouse GL261 cells xenografted in C57Bl/6 mouse assessed as decrease in tumor volume at 100 mg/kg,po daily by H and E staining based microscopy; format: functional, organism-based
[9] = target: Angiopoietin-1 receptor (Homo sapiens, UniProt Q02763); test: Inhibition of TIE2 autophosphorylation in human HUVEC cells by Western blot analysis; format: cell-based
Sequence of Angiopoietin-1 receptor (Q02763 whole entry): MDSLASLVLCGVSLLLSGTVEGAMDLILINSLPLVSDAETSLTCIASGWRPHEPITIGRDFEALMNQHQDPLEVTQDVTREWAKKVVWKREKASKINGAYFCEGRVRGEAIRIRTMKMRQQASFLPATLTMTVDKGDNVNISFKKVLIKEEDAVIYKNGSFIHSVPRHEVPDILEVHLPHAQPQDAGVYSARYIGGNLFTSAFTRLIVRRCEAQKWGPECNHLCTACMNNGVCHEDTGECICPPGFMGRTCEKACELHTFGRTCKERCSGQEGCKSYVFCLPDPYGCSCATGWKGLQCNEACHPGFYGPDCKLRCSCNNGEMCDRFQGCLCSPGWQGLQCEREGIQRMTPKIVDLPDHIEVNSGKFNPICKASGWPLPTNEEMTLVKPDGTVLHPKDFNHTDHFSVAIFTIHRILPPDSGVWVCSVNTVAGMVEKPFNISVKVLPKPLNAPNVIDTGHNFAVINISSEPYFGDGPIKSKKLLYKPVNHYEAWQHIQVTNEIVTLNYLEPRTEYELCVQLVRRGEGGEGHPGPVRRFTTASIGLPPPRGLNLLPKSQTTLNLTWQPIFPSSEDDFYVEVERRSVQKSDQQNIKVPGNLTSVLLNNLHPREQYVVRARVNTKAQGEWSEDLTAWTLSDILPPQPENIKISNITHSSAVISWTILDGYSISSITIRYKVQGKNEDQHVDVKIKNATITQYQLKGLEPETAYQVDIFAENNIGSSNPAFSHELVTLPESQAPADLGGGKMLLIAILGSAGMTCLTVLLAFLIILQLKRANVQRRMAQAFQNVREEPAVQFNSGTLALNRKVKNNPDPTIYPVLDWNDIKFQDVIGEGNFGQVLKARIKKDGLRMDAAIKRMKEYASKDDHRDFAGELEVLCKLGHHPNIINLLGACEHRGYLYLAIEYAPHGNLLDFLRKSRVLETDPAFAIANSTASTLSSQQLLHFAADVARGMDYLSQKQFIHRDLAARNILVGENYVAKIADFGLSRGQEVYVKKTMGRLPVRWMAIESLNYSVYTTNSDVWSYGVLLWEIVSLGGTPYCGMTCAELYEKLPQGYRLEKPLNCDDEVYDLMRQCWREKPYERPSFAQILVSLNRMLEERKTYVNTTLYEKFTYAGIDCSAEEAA

[10] = system: SMA-560; test: Antitumor activity against mouse SMA-560 cells xenografted in VM/Dk mouse assessed as decrease in tumor volume at 100 mg/kg,po daily with 12 Gy irradition after 2days of treatment initiation by H and E staining based microscopy; format: functional, organism-based
[11] = system: SMA-560; test: Antitumor activity against mouse SMA-560 cells xenografted in VM/Dk mouse assessed as increase in number of tumor-infiltrating CD11b positive monocytes/microglia in tumor at 100 mg/kg,po daily by immunohistochemistry analysis; format: functional, organism-based
[12] = Toxicity in VM/Dk mouse xenografted with mouse SMA-560 cells assessed as survival rate at 100 mg/kg,po daily with 12 Gy irradition after 2days of treatment initiation (Rvb=30%); format: organism-based; conditions: in vivo, 48 h
[13] = system: SMA-497; test: Induction of apoptosis in mouse SMA-497 cells assessed as live cells at 0.1 uM incubated for 72 hrs by Annexin V-FITC/PI staining based flow cytometric analysis (reference value: 83.4%); format: functional
[14] = system: SMA-560; test: Induction of apoptosis in mouse SMA-560 cells assessed as necrotic cells at 0.1 uM incubated for 72 hrs by Annexin V-FITC/PI staining based flow cytometric analysis (reference value: 13.5%); format: functional

Structure (SMILES): Cc1cc(C)c(-n2ccn3nc(-c4cccnc4)cc23)cc1NC(=O)c1cc(C#N)cc(S(F)(F)(F)(F)F)c1 [BAY-826]
- Activity [1]: inactive
- inhibition [2]: Active
- Activity [3]: 0%
- Activity [4]: inactive
- Activity [5]: inactive
- inhibition [6]: Active
- Activity [7]: 11%
- Activity [8]: inactive
- EC50 [9]: 1.3 nM
- Activity [10]: Active
- Activity [11]: inactive
- Survival [12]: 33.5%
- Activity [13]: 91.4%
- Activity [14]: 8.81%
